Assay results from patent US20140004192A1, “PHARMACEUTICAL FORMULATIONS OF INDIBULIN AND USES THEREOF” (Ziopharm Oncology, Inc., priority 2012, published 2014).
Like-named read-outs stand apart in the source and are kept apart here.

Experiments:
[1] = Microcentrifuge dissolution test in model fasted duodenal solution (MFDS); assay type: physicochemical; settings: dosed at 200 μgA/mL
Procedure: The microcentrifuge dissolution test was performed to assess the ability of the indibulin SDD to sustain solubilized drug levels and to determine suspension stability. Using this method, 10% A HPMCAS-H(HPMCAS high grade), 15% A HPMCAS-H, 20% A HPMCAS-H, 25% A HPMCAS-H, 25% A HPMCAS-M (HPMCAS medium grade) and 50% A HPMCAS-M SDD formulations were tested. Specifically, the microcentrifuge dissolution test measures the supersaturation of drug above the crystalline solubility when dosed into the model fasted duodenal solution (MFDS).
In the microcentrifuge dissolution test, indibulin HPMCAS SDDs were each dosed into MFDS, which is 0.5% taurocholic acid, sodium salt hydrate (NaTC)/1-palmitoyl-2-oleoyl-sn-glycero-3-phosphocholine (POPC) in phosphate buffer solution (PBS, pH 6.5). In each resulted sample, the concentration of dissolved indibulin would have been 200 μg active drug per mL (200 μgA/mL), if all of the indibulin had dissolved. The samples were centrifuged at 13,000 rpm at 37° C. for 1 minute. The supernatant solution of each sample was then analyzed by HPLC. The remaining sample was mixed and allowed to stand undisturbed until next measurement was taken. […]

[2] = Suspension stability by microcentrifuge dissolution test; assay type: physicochemical; settings: dosed into MFDS
Procedure: Suspension stability of 10% A HPMCAS-H and 25% A HPMCAS-H formulations were evaluated using the microcentrifuge dissolution test, as detailed below.
First, a 0.5 wt % Methocel A (Methylcellulose, Methocel A4M Premium, DOW Chemical Company) vehicle was prepared and later used as the suspension vehicle. Specifically, this vehicle was prepared by adding 0.5 g of Methocel A to 30 mL deionized water at 90° C. and stirring until well dispersed. To the resultant dispersion was added 70 mL of water and the mixture was placed into an ice bath and stirred until Methocel A is dissolved.
A 20 mgA/mL indibulin SDD suspension of each of the 10% A HPMCAS-H and 25% A HPMCAS-H formulations was then prepared by adding the indibulin HPMCAS SDD to the aqueous 0.5 wt % Methocel A vehicle (as prepared above). Each suspension was then tested in the microcentrifuge dissolution test (as described above) immediately after constitution in the aqueous 0.5 wt % Methocel A vehicle (O-hour or Initial), and one hour after the constitution in the aqueous 0.5 wt % Methocel A vehicle. The stability of each suspension was determined by comparing the dissolution profile of the one-hour suspension to the performance of the initial suspension. […]

[3] = Rat pharmacokinetic study, second study (dose response); assay type: in vivo, rats; settings: plasma, po; for AUC(0-t) / Cmax / Tmax: Second Study; for concentration at 0 h / concentration at 0.5 h / concentration at 1 h / concentration at 2 h / concentration at 4 h / concentration at 6 h / concentration at 10 h: second study, read-out: plasma indibulin
Procedure: The second study was designed to determine the dose response of indibulin plasma concentration with the 10% A SDD formulation. In general, 10% A SDD was administered p.o. at 10, 15 and 20 mg/kg and plasma indibulin concentrations were determined at several time points.
All rats used in the second study were fasted 12 hours prior to dose, and food was returned 4 hours post dose. Indibulin in crystalline form was suspended in 0.5% Methocel A at 10 mg/kg, 15 mg/kg and 20 mg/kg by vortexing and sonicating. The indibulin SDD formulations were made by combining 10% active indibulin SDD at 10 mg/kg, 15 mg/kg and 20 mg/kg in a mortar with 0.5% Methocel A and using a pestle to gradually mix in to solution. There were six rats per group, all animals were weighed and the dose volume calculated so that each rat received the test article orally at a volume of 10 mL/kg. The first three rats in each group were bled at […], 2, and 6 hours post dose; the remaining three rats in each group were bled at 1, 4, and 10 hours post dose. For blood collection at all time points, all animals were anesthetized with an inhalation of 4% isoflurane and 1.5% oxygen; once it was determined that the animal was adequately anesthetized (no reaction to physical stimulation) using a capillary tube the orbital venous plexus was punctured and a volume of 1 mL of blood was collected in to a sodium heparin tube. Once the blood was collected the sodium heparin tube was inverted ten times, and placed on ice until centrifuged for 10 minutes at 2510 rpm. The plasma was decanted into labeled Eppendorfs and stored at −80° C. until analyzed by HPLC with MS/MS Detection. All data were acquired using Applied Biosystems/MDS-Sciex Analyst Version 1.5; processed, and reported using Watson Version 7.3.0.01TM, Thermo Fisher Scientific, Inc.; and are summarized in FIG. 13 and FIG. 14.

[4] = cited from earlier work

## O=C(Nc1ccncc1)C(=O)c1cn(Cc2ccc(Cl)cc2)c2ccccc12 [Bulk Crystalline Drug, indibulin]
[1]; MFDS pH 6.5, first 90 min
  AUC90: 160 µg·min/mL
[1]; concentration in MFDS at 90 min
  C90: 1 µg/mL
[1]; concentration in MFDS at 1200 min
  C1200: 3 µg/mL
[1]; maximum concentration of indibulin in MFDS pH 6.5, first 90 min
  Cmax90: 2000 ng/mL
[2]; 20 mgA/mL suspension in 0.5 wt % Methocel A, hold time 0 hr
  Cmax90: 2000 ng/mL
[2]; suspension hold time 0 hr
  AUC90: 150 µg·min/mL
[3]; rat p.o. 10 mg/kg (60 mg/m^2)
  AUC(0-t): 48 ng·h/mL
  Cmax: 8.6 ng/mL
  Tmax: 2 h
[3]; rat p.o. 15 mg/kg (90 mg/m^2)
  AUC(0-t): 146 ng·h/mL
  Cmax: 24 ng/mL
  Tmax: 4 h
[3]; rat p.o. 20 mg/kg (120 mg/m^2)
  AUC(0-t): 110 ng·h/mL
  Cmax: 21 ng/mL
  Tmax: 4 h
[3]; rat p.o. 10 mg/kg
  concentration at 0 h: 0 ng/mL
  concentration at 0.5 h: 2 ng/mL
  concentration at 1 h: 4 ng/mL
  concentration at 2 h: 9 ng/mL
  concentration at 4 h: 4 ng/mL
  concentration at 6 h: 7 ng/mL
  concentration at 10 h: 2 ng/mL
[3]; rat p.o. 15 mg/kg
  concentration at 0 h: 0 ng/mL
  concentration at 0.5 h: 10 ng/mL
  concentration at 1 h: 17 ng/mL
  concentration at 2 h: 17 ng/mL
  concentration at 4 h: 24 ng/mL
  concentration at 6 h: 7 ng/mL
  concentration at 10 h: 19 ng/mL
[3]; rat p.o. 20 mg/kg
  concentration at 0 h: 0 ng/mL
  concentration at 0.5 h: 9 ng/mL
  concentration at 1 h: 12 ng/mL
  concentration at 2 h: 14 ng/mL
  concentration at 4 h: 21 ng/mL
  concentration at 6 h: 7 ng/mL
  concentration at 10 h: 6 ng/mL
[4]
  solubility in water, methanol, ethanol or 2-propanol: practically insoluble
